Measurements reported in US20150160193A1, “TUMOR CELL ISOLATION/PURIFICATION PROCESS AND METHODS FOR USE THEREOF” (DIATECH ONCOLOGY, priority 2012, published 2015).
Read-outs that look alike come from different tables or passages of the source. *1 amine or outer side, *2 acyl side, *3 side chain or, on linkers, in order; H or OH if unused. Where a SMILES comes first, the peptide text is derived from it. Bridges are numbered along the chain shown (N, C = ends). Roman numbers before positions name the chains, in order. [ ]: non-standard residue; d: D form. Actinocin(9to1) = Cc1c2oc3c(C)ccc(C(=O)[*:1])c3nc-2c(C(=O)[*:2])c(N)c1=O; NMeV = CN[C@H](C(=O)O)C(C)C; Sar = CNCC(=O)O

Experiments:
[1] = system: neoplastic cells collected from spleen and abdominal tumor biopsy specimens; test: MiCK assay, patient specific cancer cell testing (Example 10); assay type: cell-based, human; conditions: for efficacy for this patient, in words: single agents
Procedure: The experiments were conducted on neoplastic cells collected from spleen and abdominal tumor biopsy specimens from a person. The tumor specimens were of an unknown primary. The experiment consisted of using a MiCK assay, according to the present disclosure, to test the effectiveness of 37 potential anti-cancer drugs, combinations of these drugs, and various concentrations of these drugs.
Apoptotic readings greater than 5.0KU in the MiCK assay are considered to be highly sensitive and are associated with a good clinical response. […] It should be noted that the alkylating agents cyclophosphamide and ifosfamide require hepatic metabolic transformation to their active metabolite, 4HC and 4HI respectively, and therefore cannot be tested directly in vitro. For the MiCK assay their active metabolites, 4HC and 4HI respectively were used.

[2] = system: Purified breast cancer cells from 67 patient (Pt) biopsies; test: MiCK assay of drug-induced apoptosis, breast cancer specimens; assay type: cell-based, human; conditions: for Mean Difference (95% CI) of KU vs Doxo: paired t-test, drug minus Doxo; for Mean Difference (95% CI) of KU vs Carbo: drug minus Carbo
Procedure: Apoptosis(KU)=(VmaxDrug Candidate Treated−VmaxControl)×60×X/(ODcontrol−ODblank)
Within 24 to 48 hours of collection, the specimen was minced, digested with 0.25% trypsin and 0.08% DNase for 1-2 hours at 37 C.°, and then filtered through a 100 micrometer cell strainer. When necessary, non-viable cells were removed by density gradient centrifugation. The cell suspension was then incubated for 30 min at 37° C. in a tissue culture flask to remove macrophages by adherence. For epithelial tumors lymphocytes were removed by 30 minute incubation with CD2 antibody conjugated magnetic beads for T lymphocytes and CD19 antibody conjugated magnetic beads for B lymphocytes. Remaining macrophages were removed, if necessary, using CD14 antibody conjugated magnetic beads. The final cell suspension was plated into a 96-well half-area plate, 120 microliter aliquot per well. The plate was incubated overnight at 37° C. with 5% carbon dioxide humidified atmosphere. 5×10^4 to 1.5×10^5 cells were seeded per well depending on the cell volume to give adequate well-bottom coverage.
Within 24 to 48 hours of collection, the specimen was treated as follows in order to purify and isolate cells from solid tumors: • Take the specimen out of the transport tube. • Put in a petri dish in 13 ml of PBS+high concentration of antibiotics (200 units/ml Penicillin+200 μg/ml streptomycin) and take measurements and picture of the specimen. […] In that case, one may make the determination to do a “pre-filtration” using sterile gauze over a 50 ml tube. Then proceed with the cell strainer filtration process referenced above. • Centrifuge the filtered cell suspension 1500 RPM 5 min • Discard the supernatant. To the pellet, add 5 ml of red blood cell lysis solution (standard NH4Cl containing lysis solution: Nh4Cl0.15M+KHCO3 10 mM+EDTA-4Na 0.1 mM, pH 7.2), incubate 2-3 min and add 5 ml of RPMI 10% FBS. • Centrifuge 5 min 1500 RPM. Resuspend the pellet in RPMI 10% FBS (1-10 ml depending on the pellet size). • Collect the second fraction in the enzyme and repeat the steps above. • Check the viability of all fractions and pool. Do a cytospin stain with Wright Giemsa to verify the cell content of the population. NOTE: this is done numerous times during the process of purification. • 3) When necessary, non-viable cells were removed by density gradient centrifugation. • Density gradient centrifugation (optiprep): first layer=2 ml cells+4.45 ml optiprep 40% in RPMI, second layer=optiprep 22.5% in RPMI, 3rd layer=0.5 ml of RPMI. Centrifuge at 2000 RPM for 20 min • Collect the viable cell layer, add 10 ml of RPMI 10% FBS, centrifuge at 1500 RPM for 5 min • Resuspend the pellet in RPMI 10% FBS (volume depends on the pellet size and on the next step required). • If mucin is present in the specimen: resuspend the pellet in 10 ml of PBS+20 mM DTT and incubate at 4° C. for 30 min to disintegrate the mucin. Wash with RPMI 1500 rpm for 5 min Resuspend the pellet in RPMI 10% FBS. • If the specimen is highly necrotic with presence of debris: Percoll 20% in HBSS, centrifuge at 800×g for 10 min • 4) The cell suspension was then incubated for 20 min at 37° C. in a tissue culture flask to remove macrophages by adherence. • The size and quantity of the flask and the volume used depends on the amount of cells.

[3] = person, tumor of unknown primary, maximum apoptotic response over the concentrations tested
[4] = kinetic units of apoptosis, mean over N patient samples (at least 9 per drug)
[5] = kinetic units of apoptosis, median over N patient samples
[6] = KU compared per patient, % of 34 patients
[7] = person, tumor of unknown primary
[8] = KU compared per patient, % of 13 patients

Compound	Max Resp. (KU) [1, 3]	KU Mean [2, 4]	KU Median [2, 5]	other results
COc1cc([C@@H]2c3cc4c(cc3[C@@H](O[C@@H]3O[C@@H]5CO[C@@H](C)O[C@H]5[C@H](O)[C@H]3O)[C@H]3COC(=O)[C@H]23)OCO4)cc(OC)c1O [Etoposide, etoposide]	0.8 KU	1.3 KU	1.3 KU	–
COc1cccc2c1C(=O)c1c(O)c3c(c(O)c1C2=O)C[C@@](O)(C(=O)CO)C[C@@H]3O[C@H]1C[C@H](N)[C@@H](O)[C@H](C)O1 [Epi, Epirubicin]	3.8 KU	2.5 KU	2.1 KU	Doxo and Epi < 1 [2, 6]: 1/34 (3%); Epi = Doxo +/− 0.57 and both > 1 [2, 6]: 22/34 (65%); Epi > Doxo by more than 0.57 and Epi > 1 [2, 6]: 6/34 (18%); Mean Difference (95% CI) of KU vs Mitox ([2]; patient pairwise comparison, drug minus Mitox): 0.83 KU; Mean Difference (95% CI) of KU vs Doxo ([2]; patient pairwise comparison): 0.37 KU; Mean Difference (95% CI) of KU vs Doxo ([2]; patient pairwise comparison, listed as epirubicin): APOP>doxorubicin
O=P1(N(CCCl)CCCl)NCCCO1 (stereo not drawn) [Cytoxan, cyclophosphamide]	8.4 KU	–	–	efficacy for this patient, in words [1, 7]: highly effective results; Cytox = Ifosf +/− 0.57 and both > 1 [2]: (55%); Cytox > Ifosf by more than 0.57 and Cytox > 1 [2]: (18%); Cytox and Ifosf both < 1 [2]: (27%); KU Mean [2]: 2.8 KU; KU Median [2]: 2.6 KU; Mean Difference (95% CI) of KU vs Ifosphamide [2]: 0.34 (−0.07 to 0.76) KU
Nc1ccn([C@@H]2O[C@H](CO)[C@@H](O)C2(F)F)c(=O)n1 [Gemzar, gemcitabine]	0.8 KU	1.0 KU	0.8 KU	–
CC[C@]1(O)C[C@@H]2CN(CCc3c([nH]c4ccccc34)[C@@](C(=O)OC)(c3cc4c(cc3OC)N(C)[C@H]3[C@@](O)(C(=O)OC)[C@H](OC(C)=O)[C@]5(CC)C=CCN6CC[C@]43[C@@H]65)C2)C1 [Vnbl, Vinblastine]	1.2 KU	1.8 KU	1.5 KU	Mean Difference (95% CI) of KU vs Vincristine ([2]; patient pairwise comparison, drug minus Vincristine): 0.14 KU
N[C@@H](Cc1ccc(N(CCCl)CCCl)cc1)C(=O)O [Melphalan]	5.3 KU	–	–	–
Cc1ccc(NC(=O)c2ccc(CN3CCN(C)CC3)cc2)cc1Nc1nccc(-c2cccnc2)n1 [Gleevec (imatinib), imatinib]	1.5 KU	–	–	–
CCc1c2c(nc3ccc(OC(=O)N4CCC(N5CCCCC5)CC4)cc13)-c1cc3c(c(=O)n1C2)COC(=O)[C@]3(O)CC [Irinotecan]	2.6 KU	–	–	–
N.N.[Cl][Pt][Cl] [Cisplatin]	–	2.2 KU	2.3 KU	efficacy for this patient, in words [1, 7]: single drug with the most efficacy; Cisplatin > Carbo + 0.57 ([2]; KU compared per patient, % of 24 patients): (58%); Mean Difference (95% CI) of KU vs Carbo ([2]; patient pairwise comparison): 0.88 KU; Mean Difference (95% CI) of KU vs Carbo ([2]; patient pairwise comparison, listed as cisplatin): APOP>carboplatin; Mean Difference (95% CI) of KU vs Oxali ([2]; patient pairwise comparison, drug minus Oxali): 0.33 KU; % >1 ([2]; share of samples with KU >1): 78%; % >3 ([2]; share of samples with KU >3): 22%
O=c1[nH]cc(F)c(=O)[nH]1 [5FU, 5-fluorouracil]	0.3 KU	0.7 KU	0.6 KU	5fu > Xeloda + 0.57 [2, 8]: 2/13 (15%)
Nc1ncn([C@@H]2O[C@H](CO)[C@@H](O)[C@H]2O)c(=O)n1 [Vidaza]	4.3 KU	–	–	–
C/C(=C\c1csc(C)n1)[C@@H]1C[C@@H]2O[C@]2(C)CCC[C@H](C)[C@H](O)[C@@H](C)C(=O)C(C)(C)[C@@H](O)CC(=O)N1 [Ixabepilone, ixabepilone]	–	1.3 KU	1.2 KU	–
CNC(=O)c1cc(Oc2ccc(NC(=O)Nc3ccc(Cl)c(C(F)(F)F)c3)cc2)ccn1 [Sorafenib]	3.8 KU	–	–	–
CCCCCOC(=O)Nc1nc(=O)n([C@@H]2O[C@H](C)[C@@H](O)[C@H]2O)cc1F [Xeloda, capcitabine]	–	0.7 KU	0.7 KU	5fu and Xeloda < 1 [2, 8]: 8/13 (62%); Xeloda = 5fu +/− 0.57 and both > 1 [2, 8]: 0/13 (0%); Xeloda > 5fu by more than 0.57 and Xeloda > 1 [2, 8]: 2/13 (15%); Mean Difference (95% CI) of KU vs 5FU ([2]; patient pairwise comparison, drug minus 5FU): 0.26 (−0.26 to 0.77) KU
CC(C)C[C@H](NC(=O)[C@H](Cc1ccccc1)NC(=O)c1cnccn1)B(O)O [Velcade]	3.8 KU	–	–	–
C#Cc1cccc(Nc2ncnc3cc(OCCOC)c(OCCOC)cc23)c1 [Tarceva]	0.7 KU	–	–	–
CC[C@]1(O)C[C@H]2CN(CCc3c([nH]c4ccccc34)[C@@](C(=O)OC)(c3cc4c(cc3OC)N(C=O)[C@H]3[C@@](O)(C(=O)OC)[C@H](OC(C)=O)[C@]5(CC)C=CCN6CC[C@]43[C@@H]65)C2)C1 [Vincristine, vincristine]	0.9 KU	1.1 KU	1.0 KU	–
COc1cccc2c1C(=O)c1c(O)c3c(c(O)c1C2=O)C[C@@](O)(C(C)=O)C[C@@H]3O[C@H]1C[C@H](N)[C@H](O)[C@H](C)O1 [Danorubicin, Daunorubicin]	3.1 KU	–	–	–
CC(=O)O[C@H]1C(=O)[C@@]2(C)[C@H]([C@H](OC(=O)c3ccccc3)[C@]3(O)C[C@H](OC(=O)[C@H](O)[C@@H](NC(=O)c4ccccc4)c4ccccc4)C(C)=C1C3(C)C)[C@]1(OC(C)=O)CO[C@@H]1C[C@@H]2O [Taxol, paclitaxel]	1.6 KU	2.1 KU	1.9 KU	Mean Difference (95% CI) of KU vs Abraxane ([2]; patient pairwise comparison, drug minus Abraxane): 1.20 KU
Cc1c2oc3c(C)ccc(C(=O)N[C@@H]4C(=O)N[C@H](C(C)C)C(=O)N5CCC[C@H]5C(=O)N(C)CC(=O)N(C)[C@@H](C(C)C)C(=O)O[C@@H]4C)c3nc-2c(C(=O)N[C@@H]2C(=O)N[C@H](C(C)C)C(=O)N3CCC[C@H]3C(=O)N(C)CC(=O)N(C)[C@@H](C(C)C)C(=O)O[C@@H]2C)c(N)c1=O [Dactinomycin] (I: T[dV]P[Sar][NMeV] / II: T[dV]P[Sar][NMeV]; ester I:1-I:C, II:1-II:C; linker I:N-II:N via Actinocin(9to1))	4.0 KU	–	–	–
CN(C)/N=N/c1[nH]cnc1C(N)=O [Dacarbazine]	0.6 KU	–	–	–
Bleomycin	–	–	–	Max Resp. (KU) [1]: 1.1 KU
Cn1nnc2c(C(N)=O)ncn2c1=O [Temozolomide]	1.5 KU	–	–	–
C=C1C[C@@H]2CC[C@@]34C[C@H]5O[C@H]6[C@@H](O3)[C@H]3O[C@H](CC[C@@H]3O[C@H]6[C@H]5O4)CC(=O)C[C@@H]3[C@@H](OC)[C@@H](C[C@H](O)CN)O[C@H]3C[C@H]3O[C@@H](CC[C@@H]1O2)C[C@@H](C)C3=C [Eribulin, eribulin]	–	1.0 KU	1.0 KU	–
CNNCc1ccc(C(=O)NC(C)C)cc1 [Procarbazine]	1.3 KU	–	–	–
O=C1c2c(O)ccc(O)c2C(=O)c2c(NCCNCCO)ccc(NCCNCCO)c21 [Mitox, mitoxantrone]	–	1.2 KU	1.2 KU	–
CCN(CC)CCNC(=O)c1c(C)[nH]c(/C=C2\C(=O)Nc3ccc(F)cc32)c1C [Sunifinib, Sunitinib]	7.9 KU	–	–	–
O=NN(CCCl)C(=O)NC1CCCCC1 [CCNU]	0.8 KU	–	–	–
Nc1nc2[nH]cc(CCc3ccc(C(=O)N[C@@H](CCC(=O)O)C(=O)O)cc3)c2c(=O)[nH]1 [Alimta, pemetrexed]	0.6 KU	–	–	–
